Source: patent US9988377B2, “Small molecule inducers of GDNF as potential new therapeutics for neuropsychiatric disorders” (THE TRUSTEES OF COLUMBIA UNIVERSITY IN THE CITY OF NEW YORK, priority 2011, dated 2018)

Columns and labels:
[1] = test system: GDNF release by C6 glioma cells; assay: GDNF release by conventional ELISA in conditioned media of C6 glioma cells; format: cell-based; conditions: 10 μM compound, 48 h, 0.1% DMSO vehicle, representative experiment; for fold induction at 10 µM: C6 glioma, read-out: GDNF Increase ± SEM (fold/vehicle control)
Text: Conventional ELISAs were used to determine compound-induced increases of GDNF concentration in conditioned media of C6 glioma cells, and have afforded increased sensitivity compared to in-situ ELISA in our hands. C6 cells were purchased from ATCC (Manassas, Va.) at passage 37 and were used between passages 41-46. This requirement for a narrow range of passages is based on an observed decrease in magnitude of GDNF release with age of the cell line, and is consistent with reported behavior of C6 cells. All incubations were conducted at 37° C. in a humidified atmosphere containing 5% CO2. GDNF release was measured for each compound in 3 independent experiments. Briefly, C6 cells were seeded into sterile 12-well culture plates (Falcon) at a density of 300,000 cells per well and were recovered for 24 h in 1mL complete growth medium (94% high glucose DMEM, 5% FBS, 1% penicillin/streptomycin). Wells were then washed with 1mL sterile DPBS and were incubated for an additional 24 h with 0.5 mL low-serum medium (98.5% high glucose DMEM, 0.5% FBS, 1% penicillin/streptomycin). On the following day, experimental compounds or DMSO vehicle control were added each to duplicate wells in an additional 0.5 mL of low-serum medium. The final concentration of each compound was 10 μM in 1mL low-serum medium containing 0.1% DMSO. Plates were incubated with compounds and vehicle control for 48 h. Conditioned media were then collected from each well and GDNF concentrations were measured in triplicate on 96-well ELISA plates using the GDNF Emax Immunoassay System from Promega (Madison, Wis.) according to the manufacturer's instructions. A Bio-Tek H1MF plate reader (Burlington, Vt.) was used to measure absorbance from the resulting colorimetric reaction. Total GDNF release for each compound was calculated from the standard curve using Microsoft Excel. Data are normalized to the vehicle control and are thus presented as fold increase of GDNF concentration in experimental wells over that of the vehicle control. Each reported compound afforded a statistically significant increase of GDNF release over the DMSO control in each of three independent experiments conducted on separate days unless otherwise noted. Statistical significance within each experiment was determined by ANOVA followed by Tukey's post-hoc analysis using GraphPad Prism. Because of the naturally high variability of GDNF release values between experiments, data presented herein are intra-assay means from a representative experiment ±intra-assay standard error of the mean (SEM) calculated from biological replicates. Cytotoxicity for each compound was below 20% as measured by LDH levels in conditioned media (Cytotox 96, Promega).
All results (Table 2) represent fold-increase of GDNF release by C6 glioma cells treated with the indicated compound for 48 hours, normalized to the vehicle control. Results are presented from a representative experiment and were determined to be statistically significant (ANOVA) compared to the vehicle control.

[2] = test system: GDNF release from C6 glioma cells; assay: GDNF in-situ ELISA in C6 glioma cells; format: cell-based; conditions: 10 μM compound, 48-hour incubation, fold over control release, corrected for pre-treatment release; for fold induction at 10 µM: C6 glioma, 48 h, read-out: Fold-Increase of GDNF Concentration
Description: The GDNF Emax Immunoassay System from Promega (Madison, Wis.) was used to determine small molecule induced GDNF release from C6 glioma cells (ATCC, Manassas, Va.) with the following protocol. A 96-well ELISA plate was sterilized with UV for 30 minutes. The plate was coated with 100 μl/well of the anti-GDNF monoclonal antibody solution in carbonate coating buffer prepared per the manufacturer's instructions, and incubated overnight at 4° C. The antibody coating buffer was removed from the plate, which was then blocked according to the instructions in the kit. The plate was then incubated with 200 μl/well complete growth medium ([…], 5% FBS, 1% penicillin/streptomycin) for 2×1 h at rt to remove residue of the blocking buffer. After these washes were complete, fresh culture media was added to the wells. C6 cells were seeded at a density of 11,000 cells/well, with a total volume of approximately 150 μl in each well. The plate was incubated at 37° C. in an atmosphere containing 5% CO2. After 24 hours, complete growth medium was replaced with low serum medium (98.5% DMEM, 0.5% FBS, 1% penicillin/streptomycin) and the plate was incubated overnight for cellular synchronization. On the following day, cells were treated with experimental compounds for the indicated time. We used 10 μM concentrations of the tested compounds during a 48-hour incubation. Simultaneously with initiation of treatment, cells were removed from pre-treatment control wells with 5×200 μL washes of TBST (to control for basal GDNF release before the treatment period), and low-serum medium was added to these wells. 6 hours prior to stopping treatment with experimental compounds, the GDNF standard was added to the plate per the manufacturer's instructions. To terminate the treatment, the plate was washed extensively with 200 μl/well TBST washing buffer 5 times, which removed the cells. GDNF release for each well was measured according to GDNF Emax Immunoassay system instructions, and a plate reader was used to measure absorbance at 450 nm. Total GDNF release is calculated from the standard curve using Microsoft Excel. The listed values in Table 1 are presented as fold-increase of release of GDNF over control release of GDNF, corrected for pre-treatment release by subtracting from all values the mean amount of GDNF released in pre-treatment control wells. Statistical significance was determined using the Student's t-test.

| Compound | GDNF Increase ± SEM (fold/vehicle control) [1] [fold/vehicle control] | fold induction at 10 µM [1] | other results |
| --- | --- | --- | --- |
| 6-ethyl-2-(2-(5-fluoro-1H-indol-3-yl)ethyl)-2-azabicyclo[2.2.2]oct-5-ene [Compound 91] | 13.61 ± 0.62 | – | – |
| CCC1CC2C=CC1N(CCc1c[nH]c3ccc(OC)cc13)C2 (racemic) [Compound 10b, exo-7-ethyl-2-[2-(5-methoxy-1H-indol-3-yl)ethyl]-2-azabicyclo[2.2.2]oct-5-ene] | – | – | fold induction at 10 µM [2]: 2.2 ± 0.2 |
| CCC1CC2C=CC1N(CCCc1c[nH]c3ccccc13)C2 (racemic) [Compound 12b, endo-2-[3-(1H-indol-3-yl)propyl]-7-ethyl-2-azabicyclo [2.2.2] oct-5-ene] | – | – | fold induction at 10 µM [2]: 1.5 |
| CCC1CC2C=CC1N(CCc1c[nH]c3ccc(OC)cc13)C2 (racemic) [Compound 12c, endo-7-ethyl-2-[2-(5-methoxy-1H-indol-3-yl)ethyl]-2-azabicyclo [2.2.2]oct-5-ene] | – | – | Fold-Increase of GDNF Concentration [2]: 2.1 ± 0.1 fold |
| CCOC(=O)c1[nH]c2ccccc2c1CCN1CC2C=CC1C(CC)C2 (racemic) [Compound 12d, endo-ethyl-3-[2-(7-ethyl-2-azabicyclo[2.2.2]oct-5-en-2-yl)ethyl]-1H-indole-2-carboxylate] | – | – | fold induction at 10 µM [2]: 1.5 |
| CCC1CC2C=CC1N(CCc1c[nH]c3c(F)cccc13)C2 (racemic) [Compound 69, exo-7-ethyl-2-(2-(7-fluoro-1H-indol-3-yl)ethyl)-2-azabicyclo [2.2.2]oct-5-ene] | – | 12.13 ± 0.01 | – |
| CCC1CC2C=CC1N(CCc1c[nH]c3cccc(F)c13)C2 (racemic) [Compound 70, exo-7-ethyl-2-(2-(4-fluoro-1H-indol-3-yl)ethyl)-2-azabicyclo[2.2.2]oct-5-ene] | – | 15.8 ± 0.65 | – |
| CCC1CC2C=CC1N(CCc1c[nH]c3cc(F)ccc13)C2 (racemic) [Compound 71, exo-7-ethyl-2-(2-(6-fluoro-1H-indol-3-yl)ethyl)-2-azabicyclo[2.2.2]oct-5-ene] | – | 16.5 ± 0.3 | – |
| CCC1CC2C=CC1N(CCc1c[nH]c3ccc(F)cc13)C2 (racemic) [Compound 72, exo-7-ethyl-2-(2-(5-fluoro-1H-indol-3-yl)ethyl)-2-azabicyclo[2.2.2]oct-5-ene] | – | 16.2 ± 0.41 | – |
| CCC1CC2C=CC1N(CCc1csc3ccccc13)C2 (racemic) [Compound 73, exo-2-(2-(benzo[b]thiophen-3-yl)ethyl)-7-ethyl-2-azabicyclo[2.2.2]oct-5-ene] | – | 9.87 ± 0.22 | – |
| CCCC1CC2C=CC1N(CCc1c[nH]c3ccccc13)C2 (racemic) [Compound 75, endo-2-(2-(1H-indol-3-yl)ethyl)-7-propyl-2-azabicyclo [2.2.2]oct-5-ene] | – | 14.8 ± 0.85 | – |
| C1=CC2C(Cc3ccccc3)CC1CN2CCc1c[nH]c2ccccc12 (racemic) [Compound 76, endo-2-(2-(1H-indol-3-yl)ethyl)-7-benzyl-2-azabicyclo[2.2.2]oct-5-ene] | – | 12.8 ± 0.85 | – |
| C1=CC2C(Cc3ccccc3)CC1CN2CCc1c[nH]c2ccccc12 (racemic) [Compound 77, exo-2-(2-(1H-indol-3-yl)ethyl)-7-benzyl-2-azabicyclo[2.2.2]oct-5-ene] | 13.22 ± 0.08 | – | – |
| CCCC1CC2C=CC1N(CCc1c[nH]c3ccc(F)cc13)C2 (racemic) [Compound 78, endo-2-(2-(5-fluoro-1H-indol-3-yl)ethyl)-7-propyl-2-azabicyclo[2.2.2]oct-5-ene] | 14.39 ± 0.51 | – | – |
| CCCC1CC2C=CC1N(CCc1c[nH]c3ccc(F)cc13)C2 (racemic) [Compound 79, exo-2-(2-(5-fluoro-1H-indol-3-yl)ethyl)-7-propyl-2-azabicyclo[2.2.2]oct-5-ene] | – | 14.6 ± 0.21 | – |
| C1=CC2C(Cc3cccnc3)CC1CN2CCc1c[nH]c2ccccc12 (racemic) [Compound 80, exo-2-(2-(1H-indol-3-yl)ethyl)-7-(pyridin-3-ylmethyl)-2-azabicyclo[2.2.2]oct-5-ene] | – | 7.02 ± 1.31 | – |
| CCC1CC2C=CC1N(CCc1cn(S(=O)(=O)c3ccc(C)cc3)c3ccccc13)C2 (racemic) [Compound 82, exo-7-ethyl-2-(2-(1-tosyl-1H-indol-3-yl)ethyl)-2-azabicyclo[2.2.2]oct-5-ene] | – | 13.6 ± 1.41 | – |
| CCCCC1CC2C=CC1N(CCc1c[nH]c3ccccc13)C2 (racemic) [Compound 83, endo-2-(2-(1H-indol-3-yl)ethyl)-7-butyl-2-azabicyclo[2.2.2]oct-5-ene] | – | 12.8 ± 0.5 | – |
| CCCCC1CC2C=CC1N(CCc1c[nH]c3ccccc13)C2 (racemic) [Compound 84, exo-2-(2-(1H-indol-3-yl)ethyl)-7-butyl-2-azabicyclo[2.2.2]oct-5-ene] | 12.65 ± 0.66 | – | – |
| Fc1ccc2[nH]cc(CCN3CC4C=CC3C(Cc3ccccc3)C4)c2c1 (racemic) [Compound 85, exo-7-benzyl-2-(2-(5-fluoro-1H-indol-3-yl)ethyl)-2-azabicyclo[2.2.2]oct-5-ene] | – | 13.2 ± 2.03 | – |
| C1=CC2C(COCc3ccccc3)CC1CN2CCc1c[nH]c2ccccc12 (racemic) [Compound 86, endo-2-(2-(1H-indol-3-yl)ethyl)-7-(benzyloxymethyl)-2-azabicyclo[2.2.2]oct-5-ene] | – | 13.8 ± 2.01 | – |
| CCC1CC2C=CC1N(CCc1c[nH]c3cccc(F)c13)C2 (racemic) [Compound 87, endo-7-ethyl-2-(2-(4-fluoro-1H-indol-3-yl)ethyl)-2-azabicyclo[2.2.2]oct-5-ene] | 10.87 ± 0.84 | – | – |
| CCC1CC2C=CC1N(CCc1c[nH]c3c(F)cccc13)C2 (racemic) [Compound 89, endo-7-ethyl-2-(2-(7-fluoro-1H-indol-3-yl)ethyl)-2-azabicyclo[2.2.2]oct-5-ene] | 14.71 ± 0.11 | – | – |
| CCC1CC2C=CC1N(CCc1csc3ccccc13)C2 (racemic) [Compound 90, endo-2-(2-(benzo[b]thiophen-3-yl)ethyl)-7-ethyl-2-azabicyclo[2.2.2]oct-5-ene] | 11.86 ± 0.01 | – | – |
| CCCC1CC2C=CC1N(CCc1c[nH]c3ccccc13)C2 (stereo not drawn) [Compound 74, exo-2-(2-(1H-indol-3-yl)ethyl)-7-propyl-2-azabicyclo[2.2.2]oct-5-ene] | – | 7.11 ± 1.17 | – |
| CCC1CC2C=CC1N(CCCc1c[nH]c3ccccc13)C2 (stereo not drawn) [Compound 81, exo-2-(3-(1H-indol-3-yl)propyl)-7-ethyl-2-azabicyclo[2.2.2]oct-5-ene] | 12.55 ± 0.05 | – | – |
